Experimental data as given in paper PMC3388080 (PLoS ONE, 2012).

Tests used:
Test in all cases: CEREP radioligand binding
kappa (KOP) (guinea-pig) = target: T1, kappa (KOP) (guinea-pig) (Cavia porcellus, UniProt P41144); conditions: % of control specific binding
T1 construct: purchased CEREP
Protocol: (§1) SB-334867 was evaluated in a selectivity screen performed at CEREP (Paris, France). The screen consisted of binding assays on a panel of 79 target receptors. The specific binding (SB) of a radioligand to each target receptor was defined as the difference between the total binding and the nonspecific binding determined in the presence of a cold competitor in excess. […] Details on the CEREP screen are available from www.cerep.fr.

ETA (h) = target: T2, ETA (h) (Homo sapiens, UniProt P25101); conditions: % of control specific binding
T2 construct: purchased CEREP
Protocol: as §1

alpha 2 (non-selective) = conditions: % of control specific binding
Protocol: as §1

5-HT1A (h) = target: T3, 5-HT1A (h) (Homo sapiens, UniProt P08908); conditions: % of control specific binding
T3 construct: purchased CEREP
Protocol: as §1

D1 (h) = target: T4, D1 (h) (Homo sapiens, UniProt P21728); conditions: % of control specific binding
T4 construct: purchased CEREP
Protocol: as §1

M3 (h) = target: T5, M3 (h) (Homo sapiens, UniProt P20309); conditions: % of control specific binding
T5 construct: purchased CEREP
Protocol: as §1

PDGF = conditions: % of control specific binding
Protocol: as §1

A2A (h) = target: T6, A2A (h) (Homo sapiens, UniProt P29274)
T6 construct: purchased CEREP
Protocol: as §1

D4.4 (h) = target: T7, D4.4 (h) (Homo sapiens, UniProt P21917); conditions: % of control specific binding
T7 construct: purchased CEREP
Protocol: as §1

MT2 (h) (agonist site) = target: T8, MT2 (h) (agonist site) (Homo sapiens, UniProt P49286); conditions: % of control specific binding
T8 construct: purchased CEREP
Protocol: as §1

H2 (h) = target: T9, H2 (h) (Homo sapiens, UniProt P25021); conditions: % of control specific binding
T9 construct: purchased CEREP
Protocol: as §1

Y2 (h) = target: T10, Y2 (h) (Homo sapiens, UniProt P49146); conditions: % of control specific binding
T10 construct: purchased CEREP
Protocol: as §1

BZD (central) = conditions: % of control specific binding
Protocol: as §1

GABA (non-selective) = conditions: % of control specific binding
Protocol: as §1

P2X = conditions: % of control specific binding
Protocol: as §1

NK1 (h) = target: T11, NK1 (h) (Homo sapiens, UniProt P25103); conditions: % of control specific binding
T11 construct: purchased CEREP
Protocol: as §1

MC4 (h) = target: T12, MC4 (h) (Homo sapiens, UniProt P32245); conditions: % of control specific binding
T12 construct: purchased CEREP
Protocol: as §1

CXCR2 (h) (IL-8B) = target: T13, CXCR2 (h) (IL-8B) (Homo sapiens, UniProt P25025); conditions: % of control specific binding
T13 construct: purchased CEREP
Protocol: as §1

ETB (h) = target: T14, ETB (h) (Homo sapiens, UniProt P24530); conditions: % of control specific binding
T14 construct: purchased CEREP
Protocol: as §1

[1] = target: T15, mu (h) (MOP) (agonist site) (Homo sapiens, UniProt P35372); conditions: % of control specific binding
T15 construct: purchased CEREP
Protocol: as §1

alpha 1 (non-selective) = conditions: % of control specific binding
Protocol: as §1

PACAP (h) (PAC1) = target: T16, PACAP (h) (PAC1) (Homo sapiens, UniProt P41586); conditions: % of control specific binding
T16 construct: purchased CEREP
Protocol: as §1

ML2 (MT3) = test system: ML2 (MT3)
Protocol: as §1

A3 (h) = target: T17, A3 (h) (Homo sapiens, UniProt P0DMS8)
T17 construct: purchased CEREP
Protocol: as §1

AT1 (h) = target: T18, AT1 (h) (Homo sapiens, UniProt P30556); conditions: % of control specific binding
T18 construct: purchased CEREP
Protocol: as §1

H1 (h) = target: T19, H1 (h) (Homo sapiens, UniProt P35367); conditions: % of control specific binding
T19 construct: purchased CEREP
Protocol: as §1

BB (non-selective) = conditions: % of control specific binding
Protocol: as §1

PCP = conditions: % of control specific binding
Protocol: as §1

[2] = test system: Ca2+ channel (L, verapamil site) (phenylalkylamines); conditions: % of control specific binding
Protocol: as §1

D5 (h) = target: T20, D5 (h) (Homo sapiens, UniProt P21918); conditions: % of control specific binding
T20 construct: purchased CEREP
Protocol: as §1

Na+ channel (site 2) = conditions: % of control specific binding
Protocol: as §1

AT2 (h) = target: T21, AT2 (h) (Homo sapiens, UniProt P50052); conditions: % of control specific binding
T21 construct: purchased CEREP
Protocol: as §1

M2 (h) = target: T22, M2 (h) (Homo sapiens, UniProt P08172); conditions: % of control specific binding
T22 construct: purchased CEREP
Protocol: as §1

NK3 (h) = target: T23, NK3 (h) (Homo sapiens, UniProt P29371); conditions: % of control specific binding
T23 construct: purchased CEREP
Protocol: as §1

NT1 (h) (NTS1) = target: T24, NT1 (h) (NTS1) (Homo sapiens, UniProt P30989); conditions: % of control specific binding
T24 construct: purchased CEREP
Protocol: as §1

ORL1 (h) (NOP) = target: T25, ORL1 (h) (NOP) (Homo sapiens, UniProt P41146); conditions: % of control specific binding
T25 construct: purchased CEREP
Protocol: as §1

CGRP (h) = target: T26, CGRP (h) (Homo sapiens, UniProt O60894+Q16602); conditions: % of control specific binding
T26 construct: purchased CEREP
Protocol: as §1

D2S (h) = target: T27, D2S (h) (Homo sapiens, UniProt P14416); conditions: % of control specific binding
T27 construct: purchased CEREP
Protocol: as §1

sst (non-selective) = conditions: % of control specific binding
Protocol: as §1

CB1 (h) = target: T28, CB1 (h) (Homo sapiens, UniProt P21554); conditions: % of control specific binding
T28 construct: purchased CEREP
Protocol: as §1

VIP1 (h) (VPAC1) = target: T29, VIP1 (h) (VPAC1) (Homo sapiens, UniProt P32241); conditions: % of control specific binding
T29 construct: purchased CEREP
Protocol: as §1

beta 1 (h) = target: T30, beta 1 (h) (Homo sapiens, UniProt P08588); conditions: % of control specific binding
T30 construct: purchased CEREP
Protocol: as §1

sigma (non-selective) = conditions: % of control specific binding
Protocol: as §1

T17 sequence (P0DMS8 whole entry): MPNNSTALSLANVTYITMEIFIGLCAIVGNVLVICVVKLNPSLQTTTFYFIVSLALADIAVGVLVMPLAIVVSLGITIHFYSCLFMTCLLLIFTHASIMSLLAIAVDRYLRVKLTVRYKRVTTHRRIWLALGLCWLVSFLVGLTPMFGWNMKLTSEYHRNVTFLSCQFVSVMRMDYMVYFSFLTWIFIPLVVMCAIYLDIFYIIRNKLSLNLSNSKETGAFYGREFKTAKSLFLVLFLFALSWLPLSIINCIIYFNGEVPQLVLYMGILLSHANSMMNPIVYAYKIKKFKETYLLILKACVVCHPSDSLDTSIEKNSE
T6 sequence (P29274 whole entry): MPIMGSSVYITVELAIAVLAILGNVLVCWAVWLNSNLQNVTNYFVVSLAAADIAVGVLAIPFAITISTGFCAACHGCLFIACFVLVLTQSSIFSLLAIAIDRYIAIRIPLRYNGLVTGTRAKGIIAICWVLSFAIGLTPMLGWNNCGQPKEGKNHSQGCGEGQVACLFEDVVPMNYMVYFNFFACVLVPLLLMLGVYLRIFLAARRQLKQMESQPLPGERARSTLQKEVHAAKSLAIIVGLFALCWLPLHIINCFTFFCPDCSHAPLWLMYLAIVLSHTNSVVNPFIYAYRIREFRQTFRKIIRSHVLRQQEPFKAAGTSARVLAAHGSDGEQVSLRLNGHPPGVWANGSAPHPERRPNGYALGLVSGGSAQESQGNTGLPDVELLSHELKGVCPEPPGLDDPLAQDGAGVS
T12 sequence (P32245 whole entry): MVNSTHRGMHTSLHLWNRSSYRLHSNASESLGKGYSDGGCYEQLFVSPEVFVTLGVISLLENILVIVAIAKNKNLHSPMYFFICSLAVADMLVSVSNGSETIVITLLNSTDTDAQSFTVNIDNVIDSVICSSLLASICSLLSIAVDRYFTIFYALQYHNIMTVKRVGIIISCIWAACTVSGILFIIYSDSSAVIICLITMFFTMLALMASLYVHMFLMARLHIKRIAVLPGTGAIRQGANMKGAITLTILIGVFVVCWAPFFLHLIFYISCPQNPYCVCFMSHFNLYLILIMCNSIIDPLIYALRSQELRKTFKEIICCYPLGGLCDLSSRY
T8 sequence (P49286 whole entry): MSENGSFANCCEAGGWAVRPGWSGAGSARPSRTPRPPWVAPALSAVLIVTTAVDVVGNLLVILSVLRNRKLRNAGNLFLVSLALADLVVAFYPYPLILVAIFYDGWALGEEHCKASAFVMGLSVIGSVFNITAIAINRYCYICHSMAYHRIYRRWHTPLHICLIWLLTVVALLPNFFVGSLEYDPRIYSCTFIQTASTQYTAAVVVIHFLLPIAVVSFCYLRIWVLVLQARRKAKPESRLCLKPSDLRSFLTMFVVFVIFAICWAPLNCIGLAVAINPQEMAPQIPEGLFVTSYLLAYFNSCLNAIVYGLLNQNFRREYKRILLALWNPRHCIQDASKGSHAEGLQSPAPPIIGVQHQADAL
T16 sequence (P41586 21-468): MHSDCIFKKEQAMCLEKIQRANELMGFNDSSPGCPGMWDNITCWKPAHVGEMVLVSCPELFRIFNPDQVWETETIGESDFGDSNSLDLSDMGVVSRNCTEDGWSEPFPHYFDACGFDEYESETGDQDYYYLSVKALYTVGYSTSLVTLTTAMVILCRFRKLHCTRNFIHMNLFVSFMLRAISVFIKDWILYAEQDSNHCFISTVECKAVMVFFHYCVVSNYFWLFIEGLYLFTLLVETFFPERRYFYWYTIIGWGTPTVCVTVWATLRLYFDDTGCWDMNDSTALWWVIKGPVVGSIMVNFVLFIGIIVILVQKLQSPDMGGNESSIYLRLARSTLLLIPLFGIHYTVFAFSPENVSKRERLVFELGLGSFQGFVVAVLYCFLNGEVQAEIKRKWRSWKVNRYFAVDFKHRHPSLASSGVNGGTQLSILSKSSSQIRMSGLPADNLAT
T26 sequence (Q16602 23-461): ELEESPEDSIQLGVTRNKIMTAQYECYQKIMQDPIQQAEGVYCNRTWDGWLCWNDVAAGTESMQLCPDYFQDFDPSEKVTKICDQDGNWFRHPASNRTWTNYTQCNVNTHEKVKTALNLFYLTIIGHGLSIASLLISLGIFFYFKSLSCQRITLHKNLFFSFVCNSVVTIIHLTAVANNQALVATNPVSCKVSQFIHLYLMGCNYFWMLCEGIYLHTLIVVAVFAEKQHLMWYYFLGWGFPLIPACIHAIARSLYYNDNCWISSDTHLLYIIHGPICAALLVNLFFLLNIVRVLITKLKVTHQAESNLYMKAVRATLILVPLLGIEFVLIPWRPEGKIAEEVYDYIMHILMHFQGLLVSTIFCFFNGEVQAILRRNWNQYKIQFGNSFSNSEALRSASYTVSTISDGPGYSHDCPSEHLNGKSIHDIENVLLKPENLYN
T26 sequence (O60894 27-148): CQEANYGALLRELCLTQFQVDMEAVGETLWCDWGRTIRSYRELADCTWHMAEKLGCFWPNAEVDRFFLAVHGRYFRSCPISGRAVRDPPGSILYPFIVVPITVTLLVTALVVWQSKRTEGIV
T18 sequence (P30556 whole entry): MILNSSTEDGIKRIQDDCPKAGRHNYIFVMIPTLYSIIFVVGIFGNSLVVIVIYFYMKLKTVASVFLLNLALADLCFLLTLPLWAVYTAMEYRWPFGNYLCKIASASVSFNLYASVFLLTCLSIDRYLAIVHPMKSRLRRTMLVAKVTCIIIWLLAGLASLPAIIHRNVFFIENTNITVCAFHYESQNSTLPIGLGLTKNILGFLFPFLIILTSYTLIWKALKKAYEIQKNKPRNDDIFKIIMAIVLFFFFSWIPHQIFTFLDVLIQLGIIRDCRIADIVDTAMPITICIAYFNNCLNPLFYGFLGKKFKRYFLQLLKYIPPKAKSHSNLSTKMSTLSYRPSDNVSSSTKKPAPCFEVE
T9 sequence (P25021 whole entry): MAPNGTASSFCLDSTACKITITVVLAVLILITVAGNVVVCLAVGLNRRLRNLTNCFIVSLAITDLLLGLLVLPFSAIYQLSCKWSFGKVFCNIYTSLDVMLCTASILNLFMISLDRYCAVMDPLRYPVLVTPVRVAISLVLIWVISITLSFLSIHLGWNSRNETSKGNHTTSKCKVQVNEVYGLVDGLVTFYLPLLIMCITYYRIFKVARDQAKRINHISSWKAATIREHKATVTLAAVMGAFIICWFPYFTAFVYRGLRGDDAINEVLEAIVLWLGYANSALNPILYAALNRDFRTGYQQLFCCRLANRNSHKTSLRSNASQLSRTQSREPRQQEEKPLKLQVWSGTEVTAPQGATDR
T30 sequence (P08588 whole entry): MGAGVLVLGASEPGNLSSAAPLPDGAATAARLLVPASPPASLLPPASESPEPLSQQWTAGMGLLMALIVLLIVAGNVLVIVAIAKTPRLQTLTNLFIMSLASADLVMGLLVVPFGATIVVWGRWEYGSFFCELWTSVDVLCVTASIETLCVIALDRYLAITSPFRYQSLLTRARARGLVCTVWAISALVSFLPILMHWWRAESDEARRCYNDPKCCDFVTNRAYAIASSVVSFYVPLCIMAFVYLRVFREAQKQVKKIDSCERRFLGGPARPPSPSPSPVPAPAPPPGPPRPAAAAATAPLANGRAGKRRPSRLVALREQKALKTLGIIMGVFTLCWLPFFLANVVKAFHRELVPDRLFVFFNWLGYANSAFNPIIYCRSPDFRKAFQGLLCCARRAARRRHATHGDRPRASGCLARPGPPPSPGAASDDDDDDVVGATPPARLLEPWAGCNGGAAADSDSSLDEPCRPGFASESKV
T20 sequence (P21918 whole entry): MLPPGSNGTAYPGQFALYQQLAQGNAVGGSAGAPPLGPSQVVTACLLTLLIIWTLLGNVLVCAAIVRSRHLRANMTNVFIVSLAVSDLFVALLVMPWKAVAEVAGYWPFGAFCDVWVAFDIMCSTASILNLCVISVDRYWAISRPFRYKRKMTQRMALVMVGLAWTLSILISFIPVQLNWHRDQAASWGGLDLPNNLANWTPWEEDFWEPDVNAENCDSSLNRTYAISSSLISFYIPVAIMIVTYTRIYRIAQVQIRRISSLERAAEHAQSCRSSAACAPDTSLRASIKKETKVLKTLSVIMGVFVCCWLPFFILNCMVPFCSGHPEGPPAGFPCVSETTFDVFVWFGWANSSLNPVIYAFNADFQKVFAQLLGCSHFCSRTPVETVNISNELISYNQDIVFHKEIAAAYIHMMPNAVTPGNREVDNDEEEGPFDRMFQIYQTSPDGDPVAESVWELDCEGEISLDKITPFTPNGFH
T4 sequence (P21728 whole entry): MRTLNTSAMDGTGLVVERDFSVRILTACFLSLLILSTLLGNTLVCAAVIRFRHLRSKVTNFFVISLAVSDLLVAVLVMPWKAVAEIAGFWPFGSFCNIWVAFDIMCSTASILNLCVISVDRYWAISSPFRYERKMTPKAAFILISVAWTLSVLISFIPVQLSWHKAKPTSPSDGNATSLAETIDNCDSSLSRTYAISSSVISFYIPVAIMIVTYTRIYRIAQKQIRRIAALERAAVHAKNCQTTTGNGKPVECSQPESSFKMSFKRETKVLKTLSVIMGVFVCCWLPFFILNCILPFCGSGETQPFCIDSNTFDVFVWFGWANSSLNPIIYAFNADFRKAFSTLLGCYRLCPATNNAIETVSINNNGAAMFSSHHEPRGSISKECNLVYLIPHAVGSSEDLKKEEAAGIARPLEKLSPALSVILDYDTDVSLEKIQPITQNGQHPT
T25 sequence (P41146 whole entry): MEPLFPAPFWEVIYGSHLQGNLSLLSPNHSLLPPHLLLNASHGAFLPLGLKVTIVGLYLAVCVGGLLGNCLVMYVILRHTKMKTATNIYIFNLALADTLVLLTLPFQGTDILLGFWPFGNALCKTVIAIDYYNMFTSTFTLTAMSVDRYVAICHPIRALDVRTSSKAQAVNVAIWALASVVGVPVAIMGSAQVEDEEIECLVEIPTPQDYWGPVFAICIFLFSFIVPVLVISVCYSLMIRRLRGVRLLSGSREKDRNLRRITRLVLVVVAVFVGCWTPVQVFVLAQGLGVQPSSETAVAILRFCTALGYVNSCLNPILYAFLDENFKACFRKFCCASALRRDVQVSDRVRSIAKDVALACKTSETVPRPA

Cc1nc2ccc(NC(=O)Nc3ccnc4cccnc34)cc2o1.Cl [SB-334867, 1-(2-methylbenzoxazol-6-yl)-3-[1], [5]naphthyridin-4-yl-urea hydrochloride]
% Control (10 µM) Mean SB (kappa (KOP) (guinea-pig)): 100.8%
% Control (10 µM) Mean SB (ETA (h)): 97.3%
% Control (10 µM) Mean SB (alpha 2 (non-selective)): 96.1%
% Control (10 µM) Mean SB (5-HT1A (h)): 106.6%
% Control (10 µM) Mean SB (D1 (h)): 82.7%
% Control (10 µM) Mean SB (M3 (h)): 73.1%
% Control (10 µM) Mean SB (PDGF): 102.6%
displacement of specific binding (A2A (h); 10 µM, A2A (adenosine)): 89%
% Control (10 µM) Mean SB (A2A (h); % of control specific binding): 10.6%
% Control (10 µM) Mean SB (D4.4 (h)): 95.9%
% Control (10 µM) Mean SB (MT2 (h) (agonist site)): 98.6%
% Control (10 µM) Mean SB (H2 (h)): 86.6%
% Control (10 µM) Mean SB (Y2 (h)): 113%
% Control (10 µM) Mean SB (BZD (central)): 89.4%
% Control (10 µM) Mean SB (GABA (non-selective)): 105.5%
% Control (10 µM) Mean SB (P2X): 94.9%
% Control (10 µM) Mean SB (NK1 (h)): 104.4%
% Control (10 µM) Mean SB (MC4 (h)): 97.9%
% Control (10 µM) Mean SB (CXCR2 (h) (IL-8B)): 110.5%
% Control (10 µM) Mean SB (ETB (h)): 96.5%
% Control (10 µM) Mean SB [1]: 86.3%
% Control (10 µM) Mean SB (alpha 1 (non-selective)): 87.5%
% Control (10 µM) Mean SB (PACAP (h) (PAC1)): 107.7%
displacement of specific binding (ML2 (MT3); 10 µM, MT3 (melatonin)): 102%
% Control (10 µM) Mean SB (ML2 (MT3); % of control specific binding): -1.6%
displacement of specific binding (A3 (h); 10 µM, A3): 63%
% Control (10 µM) Mean SB (A3 (h); % of control specific binding): 37.5%
% Control (10 µM) Mean SB (AT1 (h)): 102.3%
% Control (10 µM) Mean SB (H1 (h)): 100.3%
% Control (10 µM) Mean SB (BB (non-selective)): 109.9%
% Control (10 µM) Mean SB (PCP): 91.8%
% Control (10 µM) Mean SB [2]: 92.3%
% Control (10 µM) Mean SB (D5 (h)): 118.6%
% Control (10 µM) Mean SB (Na+ channel (site 2)): 62.8%
% Control (10 µM) Mean SB (AT2 (h)): 114.4%
% Control (10 µM) Mean SB (M2 (h)): 87.3%
% Control (10 µM) Mean SB (NK3 (h)): 86.3%
% Control (10 µM) Mean SB (NT1 (h) (NTS1)): 106.9%
% Control (10 µM) Mean SB (ORL1 (h) (NOP)): 102.9%
% Control (10 µM) Mean SB (CGRP (h)): 103.6%
% Control (10 µM) Mean SB (D2S (h)): 101.2%
% Control (10 µM) Mean SB (sst (non-selective)): 88.9%
% Control (10 µM) Mean SB (CB1 (h)): 104.1%
% Control (10 µM) Mean SB (VIP1 (h) (VPAC1)): 101%
% Control (10 µM) Mean SB (beta 1 (h)): 85.7%
% Control (10 µM) Mean SB (sigma (non-selective)): 98.6%
